Test results from patent publication US10894021B2, “Compositions of xanthorrhizol and tocochromanol (tocotrienol), and methods of use” (American River Nutrition, LLC, priority 2017, dated 2021).
pIC50: −log10 of the molar value. Like-named read-outs stand apart in the source and are kept apart here.

Assays:
[1] = tested on: murine B16 melanoma cells; conditions: McAnally, Gupta et al. 2007, read-out: previous reported IC50, concentration required to elicit 50% of growth inhibition; cited from earlier work
[2] = tested on: human DU145 prostate carcinoma cells; assay: Cell growth assay, human DU145 prostate carcinoma cells (CellTiter 96 Aqueous One, 72 h); assay type: cell-based; conditions: for concentration achieving 90% of growth suppression: individual agent (FIG. 6)
Protocol: (§1) Cultures of cells, seeded in 0.1 mL medium with a density of 1,500 DU145 cells/well or 1,200 B16 cells/well in a 96-well plate, were incubated for 24 h at 37° C. in a humidified atmosphere of 5% CO2. At 24 h, the medium was decanted from each well and replaced with 0.1 mL fresh medium containing different concentrations of the test agents. Incubation continued for additional 48 h (B16) or 72 h (DU145). Following a quick rinse with 0.1 mL Hank's Balanced Salt Solution (HBSS), the 48-h (B16) or 72-h (DU145) cell populations were determined by adding 20 μL of CellTiter 96® Aqueous One Solution (Promega, Madison, Wis.) to each well; plates were held in the dark at 37° C. for 2 h and then read with a Synergy HT multi-plate reader (Biotek Instruments, Inc., Winooski, Vt.) and analyzed using the Gen5™ software (Biotek Instruments, Inc.). Absorbances from wells containing cell-free medium were used as baselines and were deducted from those of other cell-containing wells. The IC50 value is the concentration of xanthorrhizol required to suppress the net increase in cell number by 50%.
(§2) One-way analysis of variance (ANOVA) and Kruskal-Wallis tests were performed to assess the differences between groups using Prism® 7.0 software (GraphPad Software Inc., San Diego, Calif.). Differences in means were analyzed by Dunnett's multiple comparison test unless specified otherwise. Values were mean±standard error of mean (SEM). Levels of significance were designated as P<0.05. […] The constant-ratio combination design of xanthorrhizol and d-δ-tocotrienol in our study allowed automated creation of the classic isobologram by using the CompuSyn software. CI values lower than 1 indicate synergistic effect of the agents (Tallarida 2006).
Human DU145 prostate carcinoma cells were cultured in Roswell Park Memorial Institute ([…]) medium supplemented with 10% Fetal Bovine Serum (FBS; Fisher Scientific, Houston, Tex.), 1% penicillin-streptomycin (Fisher Scientific), and 0.8% gentamicin (Fisher Scientific).

[3] = tested on: murine B16 melanoma cells; assay: Cell cycle analysis by flow cytometry (propidium iodide DNA content), B16 cells; assay type: cell-based; conditions: 24-h; for percentage of cells at the G1 phase: mean±SEM, control 56.1±1.6%, no significant change
Protocol: Cells were seeded in 25 cm^2 flasks (Becton Dickinson Labware, Franklin Lakes, N.J.) at 1×10^6 cells (B16) per flask with 3 mL medium/flask and incubated for 24 h. Medium was then decanted and cultures were replenished with fresh medium containing the test agents that had been dissolved in ethyl alcohol. Following an additional 24-h incubation, adherent cells were harvested by trypsinization and pelleted by low speed centrifugation at 500 g for 5 min. Cell pellets were gently fixed in 1 mL of 70% ethanol-PBS mixture at −20° C. overnight and washed with PBS before 5×10^5 cells were re-suspended in 500 μL of PBS containing freshly prepared propidium iodide and RNase A (Roche Diagnostics, Indianapolis, Ind.) and incubated at 37° C. in the dark for 30 min as described (Yeganehjoo, DeBose-Boyd et al. 2017). Aliquots of 200 μL of the stained cells were analyzed for DNA content using a BD LSR Fortessa flow cytometer (BD Biosciences, San Jose, Calif.). The distribution of cells in the G1 and S phases of the cell cycle was determined using MultiCycle AV software (Phoenix Flow Systems, San Diego, Calif.).
(§3) Murine B16 melanoma cells were cultured in Dulbecco's Modified Eagle's Medium (DMEM) supplemented with 10% FBS, 1% penicillin-streptomycin and 0.8% gentamicin. For optimal growth, cells were incubated at 37° C. in a humidified atmosphere of 5% CO2. d-δ-Tocotrienol and xanthorrhizol were pre-dissolved in ethyl alcohol. All treated cultures contained 0.1% (v/v) of ethyl alcohol.
The effect of blends of xanthorrhizol and d-δ-tocotrienol were evaluated on the cell cycle distribution of murine B16 melanoma cells (FIG. 4). At 0-h as baseline, the percentages of cells in the G1, S, and G2 phases of cell cycle were 54.1±0.7%, 27.6±0.4%, and 18.3±0.8% (mean±SEM), respectively. Following a 24-h incubation […], these percentages were relatively stable for the control group (56.1±1.6%, 32.1±0.6% and 11.7±1.9% for G1, S and G2 phases, respectively).

[4] = tested on: murine B16 melanoma cells; assay: Cell growth assay, murine B16 melanoma cells (CellTiter 96 Aqueous One, 48 h); assay type: cell-based; conditions: for suppression of the growth of B16 cells: P>0.05
Protocol: as §1, §2, §3

[5] = 16.25 μmol/L xanthorrhizol, versus control

pIC50 ([2]; DU145 cells, 72 h incubation, read-out: IC50, suppression of the proliferation of DU145 cells) | pIC50 ([4]; B16 cells, 48 h incubation, read-out: IC50, concentration required to elicit 50% of growth inhibition) | SMILES | pIC50 [1] | concentration achieving 90% of growth suppression ([2]; DU145 cells) | percentage of cells at the G1 phase ([3]; 5 μmol/L d-δ-tocotrienol) | suppression of the growth of B16 cells ([4]; 10 μmol/L d-δ-tocotrienol applied individually) | suppression of the proliferation of murine B16 melanoma cells ([4]; d-δ-tocotrienol 0-40 μmol/L) | suppression of the proliferation of human DU145 prostate carcinoma cells ([2]; xanthorrhizol 0-200 μmol/L) | G1/S ratio, indicator of cell cycle arrest [3, 5] | percentage of cells at the S phase [3, 5] | percentage of cells at the G1 phase ([3]; 16.25 μmol/L xanthorrhizol) | suppression of the growth of B16 cells ([4]; 16.25 μmol/L xanthorrhizol applied individually) | suppression of the proliferation of murine B16 melanoma cells ([4]; xanthorrhizol 0-200 μmol/L)
– | – | CC(C)=CCC/C(C)=C/CC/C(C)=C/CC[C@]1(C)CCc2cc(O)cc(C)c2O1 [d-δ-tocotrienol] | 4.85 | 32 µmol/L | 59.2±1.3% | ~12% | concentration-dependent suppression | – | – | – | – | – | –
4.00 | 4.19 | CC(C)=CCC[C@@H](C)c1ccc(C)c(O)c1 [xanthorrhizol] | – | 182 µmol/L | – | – | – | concentration-dependent suppression | significantly higher | decreased | 59.5±0.7% | approximately 15% | concentration-dependent suppression
